Data reported in patent US20210283058A1, “METHOD FOR PRODUCING SUSTAINED-RELEASE DRUG, AND SUSTAINED-RELEASE DRUG” (GUNZE LIMITED, priority 2016, published 2021).

Test: Sustained release evaluated by weight loss curves from TG/DTA
Format: physicochemical
Settings: conditions a): 30° C. to 40° C. at 5° C./min, then 40° C. for 30 minutes
Description: The sustained release of the sustained-release drug obtained in Example 4 was evaluated by the following method. Weight loss curves were drawn from TG curves obtained using a thermogravimetry/differential thermal analysis (TG/DTA) apparatus (PerkinElmer, STA 6000) under the following conditions: conditions a) the sustained-release drug is heated from 30° C. to 40° C. at 5° C./min, followed by keeping the drug isothermally at 40° C. for 30 minutes; and conditions b) the sustained-release drug is heated from 30° C. to 50° C. at 5° C./min, followed by keeping the drug isothermally at 50° C. for 30 minutes. FIG. 6(a) (conditions a) and FIG. 6(b) (conditions b) show the obtained weight loss curves.

CC(C)[C@@H]1CC[C@@H](C)C[C@H]1O [L-menthol]
release of medicinal ingredient (weight loss curve): significant volatility
